From PMC7721803, “Development of a penem antibiotic against Mycobacteroides abscessus” (Communications Biology, 2020)

Experiment: PK simulation with one-compartmental model (plasma-free drug, fT>MIC)
Parameters: species or system BALB/c mice
Description: All procedures involving mice were approved by the Animal Care and Use Committee of Johns Hopkins University. T405 was dissolved in PBS. […] Blood was sampled from three mice per group per time point by mandibular vein puncture or cardiac puncture at the following time points: 5, 15, 30, 60, 120, and 240 min post-dose. Plasma was separated in heparin-containing tubes and frozen. […] Concentration–time data were analyzed by standard non-compartmental and compartmental techniques using WinNonlin (version 7.0; Pharsight, Mountain View, CA). […] A plasma free drug fraction of 2% of the total drug concentration was included in the simulations.

Q: Which “simulated plasma-free T405 concentration” value (150mg/kg alone, 4 h) does the source give for `C[C@@H](O)C1C(=O)N2C(C(=O)O)=C(SC3CN(C4=NCCS4)C3)SC12` (stereo in doubt) [T405] here?
A: 790 ng/mL

Q: And the “simulated plasma-free T405 concentration” value (150mg/kg alone, 6 h)?
A: 178.58 ng/mL

Q: And the “simulated plasma-free T405 concentration” value (150mg/kg alone, 8 h)?
A: 41.2 ng/mL

Q: And the “simulated plasma-free T405 concentration” value (150mg/kg alone, 10 h)?
A: 9.51 ng/mL

Q: And the “simulated plasma-free T405 concentration” value (150mg/kg alone, 12 h)?
A: 2.19 ng/mL

Q: And the “simulated plasma-free T405 concentration” value (150mg/kg alone, 16 h)?
A: 0.12 ng/mL

Q: What about the “simulated plasma-free T405 concentration” value (150mg/kg alone, 20 h) of the same compound?
A: 0.01 ng/mL

Q: And the “simulated plasma-free T405 concentration” value (150mg/kg alone, 24 h)?
A: 0 ng/mL

Q: And the “simulated plasma-free T405 concentration” value (300mg/kg alone, 0.083 h)?
A: 37440 ng/mL

Q: What about the “simulated plasma-free T405 concentration” value (300mg/kg alone, 0.25 h) of the same compound?
A: 39280 ng/mL

Q: And the “simulated plasma-free T405 concentration” value (300mg/kg alone, 0.5 h)?
A: 29352 ng/mL

Q: And the “simulated plasma-free T405 concentration” value (300mg/kg alone, 1 h)?
A: 14552 ng/mL

Q: And the “simulated plasma-free T405 concentration” value (300mg/kg alone, 2 h)?
A: 6312 ng/mL

Q: And the “simulated plasma-free T405 concentration” value (300mg/kg alone, 4 h)?
A: 1580 ng/mL

Q: What about the “simulated plasma-free T405 concentration” value (300mg/kg alone, 6 h) of the same compound?
A: 357.16 ng/mL

Q: What about the “simulated plasma-free T405 concentration” value (300mg/kg alone, 8 h) of the same compound?
A: 82.4 ng/mL

Q: And the “simulated plasma-free T405 concentration” value (300mg/kg alone, 10 h)?
A: 19.01 ng/mL

Q: What about the “simulated plasma-free T405 concentration” value (300mg/kg alone, 12 h) of the same compound?
A: 4.39 ng/mL

Q: And the “simulated plasma-free T405 concentration” value (300mg/kg alone, 16 h)?
A: 0.23 ng/mL

Q: And the “simulated plasma-free T405 concentration” value (300mg/kg alone, 20 h)?
A: 0.01 ng/mL

Q: And the “simulated plasma-free T405 concentration” value (300mg/kg alone, 24 h)?
A: 0 ng/mL

Q: And the “predicted free drug time above MIC (fT>MIC)” value (300 mg/kg twice daily, in the presence of avibactam)?
A: above 40%

Q: What about the “simulated plasma-free T405 concentration” value (450mg/kg alone, 0.083 h) of the same compound?
A: 56160 ng/mL

Q: What about the “simulated plasma-free T405 concentration” value (450mg/kg alone, 0.25 h) of the same compound?
A: 58920 ng/mL

Q: And the “simulated plasma-free T405 concentration” value (450mg/kg alone, 0.5 h)?
A: 44028 ng/mL

Q: And the “simulated plasma-free T405 concentration” value (450mg/kg alone, 1 h)?
A: 21828 ng/mL

Q: What about the “simulated plasma-free T405 concentration” value (450mg/kg alone, 2 h) of the same compound?
A: 9468 ng/mL

Q: And the “simulated plasma-free T405 concentration” value (450mg/kg alone, 4 h)?
A: 2370 ng/mL

Q: What about the “simulated plasma-free T405 concentration” value (450mg/kg alone, 6 h) of the same compound?
A: 535.74 ng/mL

Q: And the “simulated plasma-free T405 concentration” value (450mg/kg alone, 8 h)?
A: 123.6 ng/mL

Q: And the “simulated plasma-free T405 concentration” value (450mg/kg alone, 10 h)?
A: 28.52 ng/mL

Q: What about the “simulated plasma-free T405 concentration” value (450mg/kg alone, 12 h) of the same compound?
A: 6.58 ng/mL

Q: And the “simulated plasma-free T405 concentration” value (450mg/kg alone, 16 h)?
A: 0.35 ng/mL

Q: And the “simulated plasma-free T405 concentration” value (450mg/kg alone, 20 h)?
A: 0.02 ng/mL

Q: What about the “simulated plasma-free T405 concentration” value (450mg/kg alone, 24 h) of the same compound?
A: 0 ng/mL

Q: What about the “predicted free drug time above MIC (fT>MIC)” value (450 mg/kg twice daily with probenecid, in absence of avibactam) of the same compound?
A: 54%

Q: And the “predicted free drug time above MIC (fT>MIC)” value (450 mg/kg twice daily with probenecid, in presence of avibactam)?
A: 72%

Q: What about the “predicted free drug time above MIC (fT>MIC)” value (450 mg/kg twice daily, free fraction 2%, MIC 0.5 µg/mL (ATCC 19977 in presence of avibactam)) of the same compound?
A: 48%

Q: What about the “predicted free drug time above MIC (fT>MIC)” value (450 mg/kg twice daily, free fraction 2%, MIC 2 µg/mL (absence of avibactam)) of the same compound?
A: 35%

Q: What about the “simulated plasma-free T405 concentration” value (450mg/kg+Prob (with probenecid), 0.083 h) of the same compound?
A: 48480 ng/mL

Q: And the “simulated plasma-free T405 concentration” value (450mg/kg+Prob (with probenecid), 0.25 h)?
A: 52560 ng/mL

Q: And the “simulated plasma-free T405 concentration” value (450mg/kg+Prob (with probenecid), 0.5 h)?
A: 44640 ng/mL

Q: And the “simulated plasma-free T405 concentration” value (450mg/kg+Prob (with probenecid), 1 h)?
A: 29664 ng/mL

Q: What about the “simulated plasma-free T405 concentration” value (450mg/kg+Prob (with probenecid), 2 h) of the same compound?
A: 16020 ng/mL

Q: What about the “simulated plasma-free T405 concentration” value (450mg/kg+Prob (with probenecid), 4 h) of the same compound?
A: 6636 ng/mL

Q: And the “simulated plasma-free T405 concentration” value (450mg/kg+Prob (with probenecid), 6 h)?
A: 2425.1 ng/mL

Q: And the “simulated plasma-free T405 concentration” value (450mg/kg+Prob (with probenecid), 8 h)?
A: 908.73 ng/mL

Q: And the “simulated plasma-free T405 concentration” value (450mg/kg+Prob (with probenecid), 10 h)?
A: 340.52 ng/mL

Q: And the “simulated plasma-free T405 concentration” value (450mg/kg+Prob (with probenecid), 12 h)?
A: 127.6 ng/mL

Q: What about the “simulated plasma-free T405 concentration” value (450mg/kg+Prob (with probenecid), 16 h) of the same compound?
A: 17.92 ng/mL

Q: And the “simulated plasma-free T405 concentration” value (450mg/kg+Prob (with probenecid), 20 h)?
A: 2.52 ng/mL

Q: What about the “simulated plasma-free T405 concentration” value (450mg/kg+Prob (with probenecid), 24 h) of the same compound?
A: 0.35 ng/mL
